These results are taken from BindingDB's records for doi:10.1021/jm00073a012 (Glaxo Group Research, 1993).

Where only a bound is given, the exact number is not on record here.

In general, IC50 refers to the concentration that inhibits the measured activity by half. Read a high IC50 as lower potency.

In this assay the target is T1, Dimer of Gag-Pol polyprotein [489-587] (Human immunodeficiency virus 1, UniProt P12497).
T1 construct: 489-587
The experiment in a line: Protease Inhibition Assay. The note with it: pH 6; 37 °C. The protocol: IC50 values were obtained by assaying the enzyme against the synthetic substrate peptide KQGTVSFNFPQIT, which was tritiated at the proline residue, and then was coupled via its N-terminal lysine to an Affi-gel bead mixture. The assay was performed in 96-well microtiter filtration plates. The plates containing HIV protease and radiolabeled substrate beads were incubated with or without inhibitor. After filtration, radioactivity was measured using an LKB 1205 Microbeta liquid scintillation counter. IC50 determinations were performed in duplicate at each concentration with mean values used for data analysis.
The compound `CCC(C)C(CO)NC(=O)[C@@H]1N[C@@H]([C@H](NC(=O)Cc2ccccc2)C(=O)NCc2ccccc2)SC1(C)C` (stereo partly drawn) [(2R,4S)-2-[(R)-(benzylcarbamoyl)(1-phenylacetamido)methyl]-N-(1-hydroxy-3-methylpentan-2-yl)-5,5-dimethyl-1,3-thiazolidine-4-carboxamide] had an IC50 greater than 0.54 µM.

In turn, `CC1(C)S[C@H]([C@H](NC(=O)Cc2ccccc2)C(=O)NCc2ccccc2)N[C@H]1C(=O)NCCNC(=O)[C@@H]1N[C@@H]([C@H](NC(=O)Cc2ccccc2)C(=O)NCc2ccccc2)SC1(C)C` [(2R,4S)-2-[(R)-(benzylcarbamoyl)(1-phenylacetamido)methyl]-N-(2-{[(2R,4S)-2-[(R)-(benzylcarbamoyl)(1-phenylacetamido)methyl]-5,5-dimethyl-1,3-thiazolidin-4-yl]formamido}ethyl)-5,5-dimethyl-1,3-thiazolidine-4-carboxamide] gave a half-inhibitory concentration (IC50) of 0.0009 µM.

`C[C@@H](Cc1ccccc1)NC(=O)[C@@H]1N[C@@H]([C@H](NC(=O)Cc2ccccc2)C(=O)NCc2ccccc2)SC1(C)C` [(2R,4S)-2-[(R)-(benzylcarbamoyl)(1-phenylacetamido)methyl]-5,5-dimethyl-N-[(2S)-1-phenylpropan-2-yl]-1,3-thiazolidine-4-carboxamide] returned a half-inhibitory concentration (IC50) greater than 180 µM.

Compound `C[C@H](CO)NC(=O)[C@@H]1N[C@@H]([C@H](NC(=O)Cc2ccccc2)C(=O)NCc2ccccc2)SC1(C)C` [(2R,4S)-2-[(R)-(benzylcarbamoyl)(1-phenylacetamido)methyl]-N-[(2R)-1-hydroxypropan-2-yl]-5,5-dimethyl-1,3-thiazolidine-4-carboxamide] gave an IC50 greater than 20 µM.

As for `CC1(C)S[C@H]([C@H](NC(=O)Cc2ccccc2)C(=O)NCc2ccccc2)N[C@H]1C(N)=O` [[2R-[2a(R*),4B]]-4-Carbamoyl-5,5-dimethyl-a-[(phenylacetyl)amino]-N-(phenylmethyl)-2-thiazolidineacetamide], the IC50 was greater than 230 µM.

For the compound `CC(C)C[C@H](CO)NC(=O)[C@@H]1N[C@@H]([C@H](NC(=O)Cc2ccccc2)C(=O)NCc2ccccc2)SC1(C)C` [(2R,4S)-2-[(R)-(benzylcarbamoyl)(1-phenylacetamido)methyl]-N-[(2R)-1-hydroxy-4-methylpentan-2-yl]-5,5-dimethyl-1,3-thiazolidine-4-carboxamide], the IC50 is greater than 4.6 µM.

On to `CC1(C)S[C@H]([C@H](NC(=O)Cc2ccccc2)C(=O)NCc2ccccc2)N[C@H]1C(=O)N[C@H](CO)Cc1ccccc1` [(2R,4S)-2-[(R)-(benzylcarbamoyl)(1-phenylacetamido)methyl]-N-[(2S)-1-hydroxy-3-phenylpropan-2-yl]-5,5-dimethyl-1,3-thiazolidine-4-carboxamide], for which the IC50 was greater than 170 µM.

`C[C@H](Cc1ccccc1)NC(=O)[C@@H]1N[C@@H]([C@H](NC(=O)Cc2ccccc2)C(=O)NCc2ccccc2)SC1(C)C` [(2R,4S)-2-[(R)-(benzylcarbamoyl)(1-phenylacetamido)methyl]-5,5-dimethyl-N-[(2R)-1-phenylpropan-2-yl]-1,3-thiazolidine-4-carboxamide]: the concentration for half-maximal inhibition (IC50) was greater than 180 µM.

Take `CC(C)[C@H](CO)NC(=O)[C@@H]1N[C@@H]([C@H](NC(=O)Cc2ccccc2)C(=O)NCc2ccccc2)SC1(C)C` [(2R,4S)-2-[(R)-(benzylcarbamoyl)(1-phenylacetamido)methyl]-N-[(2R)-1-hydroxy-3-methylbutan-2-yl]-5,5-dimethyl-1,3-thiazolidine-4-carboxamide]: the IC50 was greater than 4.7 µM.
